ChEMBL document CHEMBL1201862, “PubChem BioAssay data set” (2004)
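Each compound was tested at five concentrations against cells in 96-well plates for 48 hours. The concentration for 50% growth inhibition is given as GI50.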 Activity calls are given as the source filed them. Cut-off read from the data, not from the text of the source: active = GI50 up to about 1.1 µM and inactive = higher.

Columns and labels:
Test in all cases: inhibition of tumour cell growth, NCI panel, 48 h
[1] = system: NCI-H23
[2] = system: HCT-15
[3] = system: LOX IMVI
[4] = system: KM12
[5] = system: SF-268
[6] = system: IGROV-1
[7] = system: HOP-92
[8] = system: NCI/ADR-RES
[9] = system: SK-MEL-28
[10] = system: NCI-H226
[11] = system: 786-0
[12] = system: HL-60
[13] = system: HT-29
[14] = system: COLO 205
[15] = system: SNB-19
[16] = system: HOP-62
[17] = system: DU-145
[18] = system: K562
[19] = system: CAKI-1
[20] = system: MDA-N

Row | SMILES | GI50 [1] | GI50 [2] [µM] | GI50 [3] | GI50 [4] | GI50 [5] | GI50 [6] | GI50 [7] | GI50 [8] | GI50 [9] | GI50 [10] | GI50 [11] | GI50 [12] | GI50 [13] | GI50 [14] | GI50 [15] | GI50 [16] | GI50 [17] | GI50 [18] | GI50 [19] | GI50 [20]
1 | COC(=O)c1cc2c3c(ccc2[nH]1)N(C(=O)c1cc2cc(OC)c(OC)c(OC)c2[nH]1)CC3CCl (stereo not given) | 5.56 µM (inactive) | 5.71 | 4.98 µM (inactive) | 6.4 µM (inactive) | > 100 µM (inactive) | 7.87 µM (inactive) | > 100 µM (inactive) | 12.2 µM (inactive) | > 24.1 µM (inactive) | 14.3 µM (inactive) | 3.79 µM (inactive) | 1.48 µM (inactive) | 8.55 µM (inactive) | 2.66 µM (inactive) | > 100 µM (inactive) | > 21.8 µM (inactive) | 6.44 µM (inactive) |  |  | 
2 | CCNC(=O)C#CC(=O)NCC | > 100 µM (inactive) | > 42.6 | > 83.9 µM (inactive) | > 100 µM (inactive) | 53.7 µM (inactive) | > 100 µM (inactive) | > 100 µM (inactive) |  | > 10 µM (inactive) | > 10 µM (inactive) | > 100 µM (inactive) | > 39.5 µM (inactive) | > 100 µM (inactive) | 44.6 µM (inactive) | > 100 µM (inactive) | > 100 µM (inactive) |  | > 45.3 µM (inactive) | > 100 µM (inactive) | 
3 | Nc1nc(Cl)c2ncn(Cc3ccccc3CCl)c2n1 | 3.03 µM (inactive) | 2.69 | 3.92 µM (inactive) | 15.7 µM (inactive) | 4.71 µM (inactive) | 6.34 µM (inactive) | 6.52 µM (inactive) | 4.52 µM (inactive) | 4.81 µM (inactive) | 2.64 µM (inactive) | 16.9 µM (inactive) | 3.72 µM (inactive) | 3.85 µM (inactive) | 5.05 µM (inactive) | 6.05 µM (inactive) | 21.6 µM (inactive) | 14.7 µM (inactive) | 4.43 µM (inactive) | 6.65 µM (inactive) | 
4 | O=C(CO[N+](=O)[O-])OCC(=O)c1ccccc1 | > 100 µM (inactive) | > 100 | > 100 µM (inactive) | > 100 µM (inactive) | > 100 µM (inactive) | > 100 µM (inactive) | > 100 µM (inactive) |  | > 100 µM (inactive) | > 100 µM (inactive) | > 100 µM (inactive) | > 100 µM (inactive) | > 100 µM (inactive) | > 100 µM (inactive) | > 100 µM (inactive) | > 100 µM (inactive) |  | > 100 µM (inactive) | > 100 µM (inactive) | 
5 | C[C@]12CCC(=O)C=C1CC[C@@H]1[C@@H]2CC[C@]2(C)C(=O)NC(=O)C[C@@H]12 | > 100 µM (inactive) | > 100 | > 100 µM (inactive) | > 100 µM (inactive) | > 100 µM (inactive) | > 100 µM (inactive) | > 100 µM (inactive) |  | > 100 µM (inactive) | > 100 µM (inactive) | > 100 µM (inactive) | > 100 µM (inactive) | > 100 µM (inactive) | > 100 µM (inactive) | > 100 µM (inactive) | > 100 µM (inactive) |  | > 100 µM (inactive) | > 100 µM (inactive) | 
6 | CCN(CC)CC(C(=O)Nc1c(C)cccc1C)/C(C)=N\NC(=O)C[N+](C)(C)C (stereo not given) | > 100 µM (inactive) | > 100 | > 100 µM (inactive) | > 100 µM (inactive) | > 100 µM (inactive) | > 100 µM (inactive) | > 100 µM (inactive) |  | > 100 µM (inactive) | > 100 µM (inactive) | > 100 µM (inactive) | > 100 µM (inactive) | > 100 µM (inactive) | > 100 µM (inactive) | > 100 µM (inactive) | > 100 µM (inactive) |  | > 100 µM (inactive) | > 100 µM (inactive) | 
7 | Cc1ccc([Se](=C(C(=O)c2ccccc2)C(=O)c2ccccc2)c2ccc(C)cc2)cc1 | 18.8 µM (inactive) | 16.9 |  | 18.9 µM (inactive) | 35.3 µM (inactive) | 19.6 µM (inactive) | 15 µM (inactive) | 34.3 µM (inactive) | 31 µM (inactive) | 20.2 µM (inactive) | 38.3 µM (inactive) | 21.3 µM (inactive) | 18.7 µM (inactive) | 17.3 µM (inactive) | 27.4 µM (inactive) | 48 µM (inactive) | 38.7 µM (inactive) | 28.8 µM (inactive) | 19.5 µM (inactive) | 
8 | Cc1ccc(C)c(NC(=O)c2cc(-c3ccc([N+](=O)[O-])cc3)nc(N)n2)c1 | > 100 µM (inactive) | > 100 | > 100 µM (inactive) | > 100 µM (inactive) | > 100 µM (inactive) | > 100 µM (inactive) | > 100 µM (inactive) |  | > 100 µM (inactive) | > 100 µM (inactive) | > 100 µM (inactive) | > 100 µM (inactive) | > 100 µM (inactive) | > 100 µM (inactive) | > 100 µM (inactive) | > 100 µM (inactive) |  | > 100 µM (inactive) | > 100 µM (inactive) | 
9 | O=C(Nc1ccc(Cl)c(Cl)c1)C(=O)Nn1c(S)nc2ccccc2c1=O | 76.9 µM (inactive) | > 100 | > 100 µM (inactive) | > 100 µM (inactive) | > 100 µM (inactive) | > 100 µM (inactive) | 45.3 µM (inactive) |  | > 100 µM (inactive) | > 100 µM (inactive) | > 100 µM (inactive) | > 100 µM (inactive) | > 100 µM (inactive) | > 100 µM (inactive) | > 100 µM (inactive) | > 100 µM (inactive) |  | > 100 µM (inactive) | > 100 µM (inactive) | 
10 | Clc1ccc(-n2nnc(C3=NCCCN3)c2-c2ccccc2)cc1 | > 100 µM (inactive) | > 100 | > 100 µM (inactive) | > 100 µM (inactive) | > 100 µM (inactive) | > 100 µM (inactive) | > 100 µM (inactive) |  | > 100 µM (inactive) | > 100 µM (inactive) | > 100 µM (inactive) | > 100 µM (inactive) | > 100 µM (inactive) | 67.3 µM (inactive) | > 100 µM (inactive) | > 100 µM (inactive) |  | > 100 µM (inactive) | > 100 µM (inactive) | 
11 | N#[N+]c1cc2c(cc1Br)-c1ccccc1C2 | > 100 µM (inactive) | > 100 | 91.6 µM (inactive) | > 100 µM (inactive) | > 100 µM (inactive) | 38.8 µM (inactive) | 11.9 µM (inactive) | > 100 µM (inactive) | > 100 µM (inactive) | 51.6 µM (inactive) | > 100 µM (inactive) | 51.4 µM (inactive) | > 100 µM (inactive) | > 100 µM (inactive) | 71.3 µM (inactive) | > 100 µM (inactive) | > 100 µM (inactive) | 8.39 µM (inactive) | 97.5 µM (inactive) | 
12 | N#C/C(=C\c1cc(Br)c(O)c(Br)c1)c1cccnc1 | 21 µM (inactive) | 17.7 |  | 27.2 µM (inactive) | 33.4 µM (inactive) | 52.8 µM (inactive) |  | 24 µM (inactive) | 27.6 µM (inactive) | 21.5 µM (inactive) | 10.1 µM (inactive) | 27 µM (inactive) | 34.9 µM (inactive) | 22.8 µM (inactive) | 39.1 µM (inactive) | 32.8 µM (inactive) | > 100 µM (inactive) | 23.6 µM (inactive) | 35.7 µM (inactive) | > 100 µM (inactive)
